The source of these data is ChEMBL document CHEMBL1201862, “PubChem BioAssay data set” (2004).

For test [1], the target named is T1, Intestinal-type alkaline phosphatase (Homo sapiens, UniProt P09923). In words: human intestinal alkaline phosphatase activators, dose response, biochemical, luminescence, uHTS hits (AID 463120). In kind it is functional.
Test [2] concerns the target T1, Intestinal-type alkaline phosphatase. In words: inhibition of human intestinal alkaline phosphatase – biochemical, dose response (AID 488876). In kind it is functional.
For test [3], the target named is Eukaryotic translation initiation factor 4H (Homo sapiens, UniProt Q15056). In words: human eIF4H binding inhibitors, primary screen, translation initiation inhibitor project, biochemical, uHTS, fluorescence polarization (AID 2012). On the technique in general: Fluorescence polarisation rises when a labelled molecule tumbles more slowly, as on binding a larger partner.

For test [4], the target named is T1, Intestinal-type alkaline phosphatase. The test can be described thus: human IAP activators, dose response, biochemical, luminescent, uHTS hits, set 2 (AID 488817).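 Also: potency of activators that raise enzyme activity.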 It is filed as functional.
Test [5] deals with Polyadenylate-binding protein 1 (Homo sapiens, UniProt P11940). In words: PABP poly(A) RNA binding inhibitors, primary screen, biochemical, fluorescence polarization, uHTS (AID 2014).
Test [6] has as its target T2, Alkaline phosphatase, tissue-nonspecific isozyme (Homo sapiens, UniProt P05186).
T2 sequence (P05186 whole entry): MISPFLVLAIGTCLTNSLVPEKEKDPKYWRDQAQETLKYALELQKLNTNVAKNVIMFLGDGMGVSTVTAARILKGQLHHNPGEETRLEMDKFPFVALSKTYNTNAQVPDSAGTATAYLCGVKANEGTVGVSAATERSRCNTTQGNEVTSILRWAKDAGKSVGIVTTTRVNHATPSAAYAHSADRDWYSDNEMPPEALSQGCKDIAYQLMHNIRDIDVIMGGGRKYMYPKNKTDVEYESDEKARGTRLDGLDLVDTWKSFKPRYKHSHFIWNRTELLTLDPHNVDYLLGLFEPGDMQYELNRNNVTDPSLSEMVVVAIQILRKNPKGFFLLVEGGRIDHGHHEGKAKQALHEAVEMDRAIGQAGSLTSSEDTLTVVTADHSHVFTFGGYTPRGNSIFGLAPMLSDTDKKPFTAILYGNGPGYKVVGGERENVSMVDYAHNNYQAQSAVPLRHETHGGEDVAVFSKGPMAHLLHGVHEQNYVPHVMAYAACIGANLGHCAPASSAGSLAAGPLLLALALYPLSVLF
The test can be described thus: TNAP enzyme inhibition by screening hits, dose response, selectivity assay for mouse IAP inhibitor project, biochemical, human TNAP, uHTS hits (AID 488906). In kind it is functional.

In test [7] the target is T3, Intestinal-type alkaline phosphatase (Mus musculus, UniProt P24822). The test can be described thus: PubChem AID 488785. It is filed as functional.
Test [8] deals with T2, Alkaline phosphatase, tissue-nonspecific isozyme. In words: TNAP enzyme activators, dose response, selectivity assay for human IAP activator project, biochemical, TNAP isozyme, human IAP uHTS hits (AID 488886).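 Also: potency of compounds raising TNAP activity as a selectivity check on IAP activators.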 It is filed as functional.
The target of test [9] is T3, Intestinal-type alkaline phosphatase. The test can be described thus: PubChem AID 488874. It is filed as functional.
In test [10] the test system is Streptococcus sp. 'group A'. In words: growth inhibition of control SK(-) GAS strain, dose response, counter-screen for streptokinase expression inhibitor project, luminescence, kanamycin, BacTiterGlo, confirmation (AID 1900). In kind it is functional, organism-based. (In general: A counterscreen serves to expose hits that act by an unwanted route or on another target.)

Another test concerns Streptococcus. In words: Group A Streptococcus viability loss, dose response, counter-screen for streptokinase expression inhibitor project, luminescence, BacTiterGlo (AID 1915).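 Also: potency for reduction of bacterial viability or growth.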 It is filed as functional, organism-based.
A further test has as its system INS1. In words: beta cell apoptosis inhibitors, cytokine rescue, dose response, luminescence, retest (AID 449756).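 Also: cell death triggered by IL-1 beta plus TNF-alpha plus IFN-gamma mixture; protective hits raise ATP signal compared with cytokine alone wells.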 It is filed as functional, cell-based. Conditions: Rattus norvegicus.
For a further test, the target named is Nonstructural protein 1 (Influenza A virus, UniProt Q194T2). In kind it is functional, Influenza A virus (A/California/07/2009(H1N1)).
Another test addresses T4, Streptokinase A (Streptococcus pyogenes serotype M1, UniProt P10520).
T4 sequence (P10520 whole entry): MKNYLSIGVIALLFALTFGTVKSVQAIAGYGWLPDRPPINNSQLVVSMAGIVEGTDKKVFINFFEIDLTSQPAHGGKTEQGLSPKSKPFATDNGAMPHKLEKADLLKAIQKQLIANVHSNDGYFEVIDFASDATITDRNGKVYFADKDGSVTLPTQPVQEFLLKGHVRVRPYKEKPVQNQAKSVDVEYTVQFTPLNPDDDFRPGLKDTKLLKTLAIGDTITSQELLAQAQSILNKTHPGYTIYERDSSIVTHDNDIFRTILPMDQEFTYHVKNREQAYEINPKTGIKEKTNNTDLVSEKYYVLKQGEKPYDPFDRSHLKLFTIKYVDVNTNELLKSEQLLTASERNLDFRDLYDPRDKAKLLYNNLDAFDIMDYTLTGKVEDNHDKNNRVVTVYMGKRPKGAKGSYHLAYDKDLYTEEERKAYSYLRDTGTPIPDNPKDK
In words: S. pyogenes streptokinase expression inhibitors, potency, dose response, plasminogen activation absorbance, OD405 (AID 1914).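 Also: secreted streptokinase activity via plasminogen activation per viability signal from cell pellet.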 In kind it is functional, Streptococcus pyogenes M1 GAS.

Active and inactive are the calls of the source. Some results are limits rather than exact numbers.

T1 sequence (P09923 whole entry): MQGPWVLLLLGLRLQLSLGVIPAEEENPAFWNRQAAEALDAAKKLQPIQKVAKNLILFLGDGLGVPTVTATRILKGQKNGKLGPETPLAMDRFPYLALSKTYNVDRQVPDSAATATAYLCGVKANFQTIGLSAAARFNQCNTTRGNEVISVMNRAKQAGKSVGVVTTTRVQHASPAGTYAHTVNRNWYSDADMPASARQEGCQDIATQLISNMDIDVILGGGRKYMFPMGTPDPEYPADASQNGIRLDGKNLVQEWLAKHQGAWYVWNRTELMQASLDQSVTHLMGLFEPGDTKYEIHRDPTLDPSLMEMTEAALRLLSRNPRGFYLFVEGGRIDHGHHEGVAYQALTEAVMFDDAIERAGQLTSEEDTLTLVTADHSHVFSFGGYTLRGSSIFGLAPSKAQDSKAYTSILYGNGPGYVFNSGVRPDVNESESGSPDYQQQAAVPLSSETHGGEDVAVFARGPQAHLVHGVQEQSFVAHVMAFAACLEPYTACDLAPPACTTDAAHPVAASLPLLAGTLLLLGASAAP
T3 sequence (P24822 whole entry): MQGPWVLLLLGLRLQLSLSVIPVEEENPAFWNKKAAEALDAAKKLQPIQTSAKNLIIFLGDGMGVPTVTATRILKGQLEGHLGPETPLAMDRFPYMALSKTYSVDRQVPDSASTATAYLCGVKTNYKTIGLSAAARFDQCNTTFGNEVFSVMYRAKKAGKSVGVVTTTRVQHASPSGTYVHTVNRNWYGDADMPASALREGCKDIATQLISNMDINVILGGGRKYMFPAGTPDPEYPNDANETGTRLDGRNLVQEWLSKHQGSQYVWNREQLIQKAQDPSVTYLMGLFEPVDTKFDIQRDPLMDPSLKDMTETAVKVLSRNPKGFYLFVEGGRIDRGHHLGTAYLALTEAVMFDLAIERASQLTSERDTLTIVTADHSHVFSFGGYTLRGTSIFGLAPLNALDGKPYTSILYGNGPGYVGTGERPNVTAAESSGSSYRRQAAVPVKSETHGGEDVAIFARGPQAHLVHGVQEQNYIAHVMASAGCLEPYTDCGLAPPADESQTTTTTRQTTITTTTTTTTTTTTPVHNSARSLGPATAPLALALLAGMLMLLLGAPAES
Nonstructural protein 1, sequence (Q194T2 whole entry): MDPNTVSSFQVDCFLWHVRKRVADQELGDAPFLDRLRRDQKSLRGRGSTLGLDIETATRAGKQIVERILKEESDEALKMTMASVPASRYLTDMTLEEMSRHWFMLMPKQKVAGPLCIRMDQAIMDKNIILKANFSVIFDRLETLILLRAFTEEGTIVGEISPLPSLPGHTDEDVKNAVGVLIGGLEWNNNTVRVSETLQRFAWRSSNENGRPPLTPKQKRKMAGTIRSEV
Polyadenylate-binding protein 1, sequence (P11940 whole entry): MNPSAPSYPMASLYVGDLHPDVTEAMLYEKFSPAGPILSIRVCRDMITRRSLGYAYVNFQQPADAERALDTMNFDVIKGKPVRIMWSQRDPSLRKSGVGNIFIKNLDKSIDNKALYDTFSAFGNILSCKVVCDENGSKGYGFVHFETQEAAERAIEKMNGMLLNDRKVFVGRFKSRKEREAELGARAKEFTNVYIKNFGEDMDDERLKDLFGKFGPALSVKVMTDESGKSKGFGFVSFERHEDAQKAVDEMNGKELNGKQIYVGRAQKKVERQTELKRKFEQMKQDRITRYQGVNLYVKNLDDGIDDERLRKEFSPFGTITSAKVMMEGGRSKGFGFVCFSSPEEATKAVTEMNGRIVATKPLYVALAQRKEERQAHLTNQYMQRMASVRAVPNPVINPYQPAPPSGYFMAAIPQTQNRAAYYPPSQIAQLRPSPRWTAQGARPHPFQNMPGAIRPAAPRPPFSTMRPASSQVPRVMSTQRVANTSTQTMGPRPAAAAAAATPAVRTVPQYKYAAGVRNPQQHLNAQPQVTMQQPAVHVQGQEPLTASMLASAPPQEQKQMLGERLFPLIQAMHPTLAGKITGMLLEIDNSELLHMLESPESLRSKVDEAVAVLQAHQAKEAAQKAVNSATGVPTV

As usually defined, the EC50 is the concentration that produces a half-maximal response. Broadly, the IC50 is the point on the concentration scale where inhibition reaches its midpoint. Regarding `O=C(N/N=C/c1ccc(O)cc1O)C(=O)N/N=C/c1ccc(O)cc1O`, the EC50 in [1] was 7.62 µM (active); in test [4], 4.56 µM (active); in test [8] it was > 100 µM (inactive). Further, the 50% inhibitory concentration (IC50) in test [2] is 51.3 µM (active); in test [3], 2.31 µM (active); in test [5], > 100 µM (inactive); in test [6], 38.1 µM (active); in [7], 0.604 µM (active); in [9], 5.04 µM (active).
What is called AC50 is the concentration giving half of the maximal activity seen. For `Cc1onc(-c2ccccc2)c1C(=O)NC(=S)NNC(=O)c1ccc(O)cc1O`, the EC50 in [10] is 6.86 µM (active); in the test on Streptococcus, 25.3 µM (active); on Streptokinase A it was > 150 µM (not active). In addition, the AC50 in the test on INS1 is 3.95 µM (active). Also, on Nonstructural protein 1, the IC50 is 11.4 µM (active).
